Assay results as given in patent US11136583B2, “Methods and materials for treating cancer” (Mayo Foundation for Medical Education and Research, priority 2017, dated 2021).

What was measured:
[1] = system: UFL1; assay: Ufmylation level in U2OS cells by western blot with UFM1 antibody; type: cell-based
Description: FIG. 10. U2OS cells were treated with AZD6244 or GDC0623. 48 hours later, cell were harvested, lysed, and analyzed by western blot with the indicated antibodies.
(§1) U2OS cells were plated in 6 well plates, and MEK1 inhibitors (AZD6244 or GDC0623) were added to wells with 10 μM final concentration and incubated for 48 hours. AZD6244 was purchased from Selleckchem. In some cases, cells were also irradiated with IR (10 Gy IR for 30 minutes).
(§2) Cells were washed once with PBS and lysed with SDS lysis buffer. The samples were separated by SDS-PAGE following three washes with NETN buffer. Western blots were carried out following standard procedures.
To identify an inhibitor of UFL1 activity that induced a significant decrease of ufmylation, cells were treated with inhibitors and were analyzed by western blot using UFM1 antibody to detect the ufmylation level in the cells.

[2] = system: Protein kinase ataxia-telangiectasia mutated (ATM) signaling; assay: ATM signaling in irradiated U2OS cells by western blot; type: cell-based; details: U2OS cells pretreated 6 hours, then 10 Gy IR, harvested 30 minutes after IR (FIG. 11)
Description: FIG. 11. U2OS cells were pretreated with AZD6244. 6 hours later, cells were treated with 10 Gy IR. 30 minutes after ionizing radiation, cells were harvested, lysed, and analyzed by western blot with the indicated antibodies.
as §1, §2

SMILES: Cn1cnc2c(F)c(Nc3ccc(Br)cc3Cl)c(C(=O)NOCCO)cc21 [AZD6244, selumetinib]
- UFL1 inhibition (conclusion from ufmylation and ATM signaling western blots) [1]: inhibits UFL1
- ufmylation level in the cells ([1]; 10 μM, 48 hours, western blot with UFM1 antibody (FIG. 10)): greatly suppressed
- ATM signaling [2]: greatly suppressed
